Earlier results, collected in patent US20060135482A1, “Use of fosinopril to reduce cardiovascular events in disalysis patients” (priority 2002, published 2006).
Where two headings read alike, the source gives them in different places.

Assays:
[1] = patients Clcr<30 ml/min
[2] = normal liver and kidney function; hepatic clearance increases if renal function impaired
[3] = 10 days; renal insufficiency patients
[4] = blood dialysis or peritoneal dialysis patients with terminal renal insufficiency
[5] = varying degrees of renal insufficiency incl. severe (Clcr<10 ml/min); relative to normal renal function

CCOC(=O)[C@H](CCc1ccccc1)N[C@@H](C)C(=O)N1CCC[C@H]1C(=O)O [enalapril]
AUCd10/AUCd1 (accumulation ratio, area under the curve day 10/day 1) ([1]; enalapril 2.5 mg/day for 10 days, p=0.02 versus fosinopril): 1.96

CCC(=O)O[C@@H](O[P@](=O)(CCCCc1ccccc1)CC(=O)N1C[C@H](C2CCCCC2)C[C@H]1C(=O)O)C(C)C [fosinopril, (2S,4S)-4-cyclohexyl-1-[2-[(R)-[[(S)-2-methyl-1-(propanoyl-oxy)propyl]oxy](4-phenylbutyl)phosphinoyl]acetyl]pyrrolidine-2-carboxylic acid]
Elimination route [2]: eliminated in equal parts via the liver and the kidneys
Accumulation on repeated administration [3]: accumulates less than enalapril or lisinopril
AUCd10/AUCd1 (accumulation ratio, area under the curve day 10/day 1) ([1]; fosinopril 10 mg/day for 10 days, comparison versus enalapril, p=0.02): 1.41
AUCd10/AUCd1 (accumulation ratio, area under the curve day 10/day 1) ([1]; fosinopril 10 mg/day for 10 days, comparison versus lisinopril, p<0.001): 1.3
Pharmacokinetic parameters [4]: remain comparable with those observed in patients with mild, moderate or severe renal insufficiency
Total clearance of the medicament [5]: about half of that observed in an individual with normal renal function

NCCCC[C@H](N[C@@H](CCc1ccccc1)C(=O)O)C(=O)N1CCC[C@H]1C(=O)O [lisinopril]
AUCd10/AUCd1 (accumulation ratio, area under the curve day 10/day 1) ([1]; lisinopril 5 mg/day for 10 days, p<0.001 versus fosinopril): 2.57
